In US8404829B2, “Predictive and therapeutic markers in ovarian cancer” (The Regents of the University of California, priority 2005, dated 2013):
“Also recorded” adds a separate entry of the source.

Experiments:
HEYA8 or SKOV3ip1 tumors = test: Therapeutic study in ovarian tumor xenografts (tumor size); format: in vivo, mice; settings: siRNA 150 μg/kg twice weekly, paclitaxel 100 μg weekly, four weeks
Description: For therapeutic studies, mice were injected with HEYA8 or SKOV3ip1 cells. One week later, mice were treated twice weekly with DOPC-EPHA2 siRNA (150 μg/kg) alone or in combination with weekly paclitaxel (100 μg), for four consecutive weeks.

[1] = test system: CAOV4 and HEY cell lines in which PVT1 and MYC are highly amplified; test: Cell cycle / proliferation after siRNA treatment (BrdUrd/DNA distributions), PVT1/MYC amplified lines; format: cell-based, human; settings: for cell cycle progression (BrdUrd/DNA distributions): CAOV4 and HEY, 48 hours after siRNA treatment, FIG. 7A; for cell proliferation / G1-phase block: ovarian cancer cell lines in which PVT1 is amplified and over expressed
Description: (§1) In this system, stock cell lines are transferred from flasks and 5×10^4 cells will be seeded into 24-well cell culture plates and transferred to a multi-plate incubator. Individual wells are treated with 40-120 nM siRNA and 2.5-7.5 μg/ml Lipofectamine 2000 (Invitrogen) in […] Opti-MEM reduced serum medium (Invtrogen) for 4 hours (with or without drug) in order to induce the necessary experimental perturbations. After 4 hours, the Opti-MEM are replaced with complete culture medium and the cells cultured for an additional 44 hours. Cell lysates then are extracted and re-formatted into standard 96-well microtiter plates using a Tecan multi-channel liquid handling system. These plates are then fed separately into RNA transcript, protein expression or cell analysis pipelines. For cellular profiling, treated cell culture plates are transported to a Cellomics High Content Imaging system (see below). Transcript profiling is accomplished using Affymetrix U133A/B arrays processed using the Affymetrix High Throughput Analysis system (installed at LBNL in December 2004 under an Affymetrix early access agreement). Protein profiling is accomplished using reverse phase protein at MD Anderson using lysate array technology in cases where suitable antibodies exist. Important pathway proteins are assessed using western blotting in cases where antibodies are not sufficiently specific for use on protein lysate arrays.
(§2) A Becton Dickinson cytometer can be used to measure DNA/BrdUrd distributions and/or DNA distributions during treatment. […] For BrdUrd/DNA analysis, cells are pulse labeled for 30 min. with 1 μM BrdUrd, fixed in 70% ethanol, treated with RNase, denatured and stained with propidium iodide (PI) and a fluorescently labeled antibody against BrdUrd as described in Dolbeare, F., Gratzner, H., Pallavicini, M. G. & Gray, J. W. Flow cytometric measurement of total DNA content and incorporated bromodeoxyuridine. Proc Natl Acad Sci USA 80, 5573-7 (1983), and placed in 96 well trays for analysis.
In FIGS. 7B and 7C, the BrdU data is measuring proportions of cell cycle phases of ovarian cancer cell lines that overexpress PVT1. Referring to the graphs in FIGS. 7B and 7C, cells were left untreated (control, blue bar), treated with lipofectamine 2000 (lipo, purple bar) and green fluorescent protein (GFP; green bar) as controls or treated with PVT1 siRNA (PVT1 si, yellow bar, SEQ ID NO: 3 and 4). The error bars are standard deviation values from more than one experiment. If there are no error bars on a column, it means the experiment was not repeated.

[2] = test system: OV90, in which MYC and PVT1 are not amplified; cell lines not expressing PVT1; test: Cell cycle / growth after siRNA treatment (BrdUrd/DNA distributions), unamplified lines; format: cell-based, human; settings: for cell cycle progression (BrdUrd/DNA distributions): OV90 (unamplified), 48 hours after siRNA treatment, FIG. 7A
HEY and CAOV4 cells = test: Apoptosis after siRNA treatment (phase contrast, PI DNA content distribution), PVT1 amplified lines; format: cell-based, human; settings: for apoptosis induced DNA fragments (DNA distribution below the G1/diploid peak): CAOV4 cells, FIG. 9A; for induction of apoptosis / cell death: ovarian cancer cell lines in which PVT1 is amplified and over expressed
Description: as §1, §2
Referring again to FIG. 8, an additional measure of apoptosis can include staining with an Alexa Fluor® 488 conjugate of annexin V (Molecular Probes) and staining with propidium iodide (PI). PI is impermeable to apoptotic cells and live cells, but can enter and bind nucleic acids in necrotic cells. An apoptotic index can be assessed by measuring the fraction of “sub diploid” cells after staining for DNA content using PI as illustrated in FIG. 8A. Cells are fixed in 70% ethanol, treated with RNAse and placed in 96-well trays for DNA content analysis.

[3] = test system: ovarian cancer cell lines that amplify PVT1; test: High content imaging for apoptosis (Cellomics Multiparameter Apoptosis 1 HitKit), lines that amplify PVT1; format: cell-based, human
Excerpt: (§3) A high content fluorescence image analysis system at LBNL (Cellomics, KineticScan) was used to characterize cellular responses to siRNA inhibitors including proliferation rate, apoptotic rate and motility. The KineticScan is an automated imaging instrument that scans through the bottom of clear-bottom 24-well plates, focuses on a field of cells, and acquires images at each selected color channel. The Cellomics software identifies and measures individual features and structures within each cell in a field of cells, so that up to hundreds of cell samples can be analyzed in parallel. The software then tabulates and presents the results in user-defined formats.
(§4) Referring to FIG. 10, PVT siRNA-treated ovarian cell lines were analyzed by high content imaging for apoptosis. Apoptotic cells were detected based on nuclear morphology, mitochondrial mass and/or membrane potential, and f-actin content following staining with the Cellomics Multiparameter Apoptosis 1 HitKit™. Nuclear morphology (i.e., condensation or fragmentation) are measured after staining with Hoechst 33342. Mitochondrial membrane potential and mitochondrial mass are measured after staining with MitoTracker® Red. F-actin is measured after staining with an Alexa Fluor® 488 conjugate of phalloidin (Ax488-ph). Changes in the actin cytoskeleton have been used as a potential parameter related to apoptotic changes. […]

[4] = test system: ovarian cancer cell lines that do not amplify PVT1; test: High content imaging for apoptosis (Cellomics Multiparameter Apoptosis 1 HitKit), lines that do not amplify PVT1; format: cell-based, human
Excerpt: as §3, §4

[5] = test system: cell lines that do not amplify or over express PVT1; test: Apoptosis / cell death after PVT1 siRNA, lines without PVT1 amplification; format: cell-based, human; settings: cell lines in which PVT1 is not amplified or over expressed
Description: as §1, with “Transcript profiling is accomplished using Affymetrix U133A/B arrays processed using the Affymetrix High Throughput Analysis system (installed at LBNL in December 2004 under an Affymetrix early access agreement). Protein profiling is accomplished using reverse phase protein at MD Anderson using lysate array technology in cases where suitable antibodies exist.” left out
Referring again to FIG. 8, an additional measure of apoptosis can include staining with an Alexa Fluor® 488 conjugate of annexin V (Molecular Probes) and staining with propidium iodide (PI). […] An apoptotic index can be assessed by measuring the fraction of “sub diploid” cells after staining for DNA content using PI as illustrated in FIG. 8A. […]

Compound | effect on tumor size (HEYA8 or SKOV3ip1 tumors) | cell cycle progression (BrdUrd/DNA distributions) [1] | cell proliferation / G1-phase block [1] | cell cycle progression (BrdUrd/DNA distributions) [2] | apoptosis induced DNA fragments (DNA distribution below the G1/diploid peak) (HEY and CAOV4 cells) | induction of apoptosis / cell death (HEY and CAOV4 cells) | S phase proportion (BrdU) ([1]; cell lines overexpressing PVT1, vs untreated, lipofectamine 2000 and GFP controls, FIG. 7B) | cell proliferation / G1-phase block ([1]; listed as siRNAs against PVT1) | growth inhibition ([2]; cell lines that do not amplify or over express PVT1) | effect on cell cycle (S phase, BrdU) ([2]; ovarian cancer cell lines not expressing PVT1, FIG. 7C) | apoptotic blebbing (phase contrast photomicrographs) (HEY and CAOV4 cells; HEY cells, treated 48 hours, FIG. 8) | induction of apoptosis / cell death (HEY and CAOV4 cells; listed as siRNA against PVT1) | induction of apoptosis / cell death (HEY and CAOV4 cells; listed as siRNAs against PVT1) | apoptotic levels (nuclear morphology, mitochondrial mass/potential, f-actin) ([3]; cell lines that amplify PVT1, FIG. 10C) | F-actin content ([3]; cell lines which overamplify PVT1, after PVT1 siRNA) | F-actin content and thereby apoptosis ([4]; cell lines having no increased PVT1 amplification, FIG. 10A) | apoptotic levels (nuclear morphology, mitochondrial mass/potential, f-actin) ([4]; cell lines that do not amplify PVT1) | induction of apoptosis / cell death [5] | induction of apoptosis / cell death ([5]; listed as siRNA against PVT1)
CC(=O)O[C@H]1C(=O)[C@@]2(C)[C@H]([C@H](OC(=O)c3ccccc3)[C@]3(O)C[C@H](OC(=O)[C@H](O)[C@@H](NC(=O)c4ccccc4)c4ccccc4)C(C)=C1C3(C)C)[C@]1(OC(C)=O)CO[C@@H]1C[C@@H]2O [paclitaxel] | effective in reducing tumor size |  |  |  |  |  |  |  |  |  |  |  |  |  |  |  |  |  | 
MYC siRNA: siRNA against c-myc; sense GAGGCGAACACACAACGUC (SEQ ID NO: 18), antisense GACGUUGUGUGUUCGCCUC (SEQ ID NO: 19) (listed as RNA, chemistry not given here) |  | strongly inhibited | blocks cells in the G1-phase of the cell cycle | not in the unamplified line | not after MYC inhibition | does not induce apoptosis |  |  |  |  |  |  |  |  |  |  |  |  | 
PVT1 siRNA: siRNA against PVT1; sense CAGCCAUCAUGAUGGUACU (SEQ ID NO: 3), antisense AGUACCAUCAUGAUGGCUG (SEQ ID NO: 4) (listed as RNA, chemistry not given here) |  | strongly inhibited | inhibit cell proliferation by blocking cell in the G1-phase of the cell cycle; also recorded: blocks cells in the G1 phase of the cell cycle | not in the unamplified line | Apoptosis induced DNA fragments are present after PVT1 inhibition | inducing cell death; also recorded: induces apoptosis | much shorter than in the 3 control columns | particularly effective in inhibiting proliferation | do not inhibit growth | does not affect the cell cycle | apoptotic blebbing after siRNA inhibition of PVT1 is apparent | induced apoptosis | inducing apoptosis | increased apoptotic levels, higher than levels of cells treated with paclitaxel | Increased F-actin content | remained low | normal apoptotic levels | do not inhibit growth or induce cell death | no apoptotic response
